Assay [1] has as its system rat isolated heart. Description: Chronotropy and inotropy in Langendorff rat isolated heart. As to the method:
Male Sprague-Dawley rats weighing 300-350 g (Charles River, Portage, Ind., USA) were anesthetized with 60 mg/kg pentobarbital sodium (Fort Dodge Laboratories, Inc., Fort Dodge, Iowa, USA) intraperitoneally. Following thoracotomy, the hearts were removed and placed into 4° C. […] Any associated lung and thymic tissue were trimmed off and the ascending aorta cannulated. The heart was then perfused at 10 ml/min with Krebs-Henseleit solution at 37° C. The perfusion pressure was constantly monitored. A small incision was made in the left atrium and a water-filled balloon (Hugo Sachs Electronik, March-Hugstetten, Germany) connected to a pressure transducer (Gould Electronics, Valley View, Ohio, USA) was placed into the left ventricle for the measurement of left ventricular developed pressure (LVDP). From this pressure, recording heart rate was electronically derived on a Grass polygraph (Quincy, Mass., USA).
In six experiments, after a 15-20 minutes stabilization period, the atria were removed. The heart rate was then allowed to stabilize at its new rate before the administration of relaxin. In three experiments, the atria were left intact.
Relaxin was administered as 50 μl bolus injections into the perfusion fluid immediately prior to entering the heart. Cumulative dose-response curves were constructed using human recombinant H2 relaxin (Genentech, Inc. South San Francisco, Calif., USA). […] Serial dilutions of both drugs were made using 0.9% (w/v) saline solution.
Statistical significance was determined by a two-tailed Student's unpaired t-test and P<0.005 was taken as significant.

Assay [2] deals with relaxin receptors in the rat heart. Description: Effect of steroid hormones on relaxin receptors in the rat heart. It counts as in vivo. The conditions noted are these: steroid treatment 10 μg s.c.; sacrificed 7 days later. As to the method:
For hormonal control experiments, 10-11-week-old female rats were ovariectomized for two weeks and then injected s.c. with 10 μg estradiol cyclopentyl propionate in a […] vehicle or with vehicle alone. Likewise, 10-11-week-old male rats were castrated for 2 weeks and were injected with either 10 μg estradiol cyclopentyl propionate, 10 μg testosterone, or vehicle alone. The rats were sacrificed 7 days later by asphyxiation with CO2. The relevant tissues were removed rapidly and frozen in powdered dry ice immediately.
The frozen tissues were sectioned to 16 μm thickness using a Reichert-Jung Model 2800 Frigocut cryostat (Cambridge Instruments). Tissue sections were fixed onto gelatin/chromium potassium sulfate treated microscope slides by warming, and immediately refrozen and stored at -80° C. overnight or longer.
For binding of ^32 P-relaxin to the tissue sections, frozen slides were prewashed with binding buffer (Hank's balanced salt solution supplemented with 20 mMHEPES, pH 7.2, 1 mg/ml BSA, 0.1 mM PMSF, and 1 μg/ml leupeptin) at 4° C. for 1.5-2 hours. The tissue sections were then covered with 600-700 μl of 100 pM ^32 P-relaxin with or without excess unlabeled relaxin and other competing agents as specificity control, and incubated at 4° C. for one hour. The slides were washed 3 times for 15-30 minutes each, with binding buffer. […]

Assay [3] has as its system rat mesocaecum venules. The conditions noted are these: local application; cited from earlier work.
For assay [4] the following is noted: obliterative peripheral arterial disease; cited from earlier work.
The conditions of assay [5]: cited from earlier work.

Where two headings read alike, the source gives them in different places.

Regarding `CNCC(O)c1ccc(O)c(O)c1.O=C(O)C(O)C(O)C(=O)O` (centres unmarked) [adrenaline, Adrenaline bitartrate, reference compound], the “transient increases in coronary perfusion pressure” value in assay [1] is listed as 5-10 mmHg. Moreover, the “left ventricular developed pressure (LVDP)” value in assay [1] (intact preparations, 4.5 pMol, basal 83±4 mmHg) was determined as 195±10 mmHg. The “duration of chronotropic effect” value in assay [1] (relaxin: single bolus administration of 830 pMol) is “short-lasting”.

`C[C@]12CC[C@H]3[C@@H](CCC4=CC(=O)CC[C@@]43C)[C@@H]1CC[C@@H]2O` [testosterone]: the “effect on relaxin binding in the heart” value in assay [2] is on record as “did not cause any changes in relaxin binding in the heart”.

As for “estradiol cyclopentyl propionate [Estrogen]”, the “effect on relaxin binding in the heart” value in assay [2] is reported as “had no effect on relaxin binding in the heart”.

On to porcine relaxin, for which the “effect on venules and vasoconstriction” value in assay [3] was “dilate venules and antagonized the vasoconstrictive effects of norepinephrine and promethazine”. Further, the “healing of Raynaud's lesions” value in assay [4] was “beneficial in healing Raynaud's lesions”. Also, in assay [5] (injection of up to 50 μg, anesthetized rats), the blood pressure entry is “did not affect blood pressure”. The arterial pressure entry is “increase arterial pressure” in assay [5] (intracerebroventricular injection, urethane anesthetized rat) and “increases arterial pressure” in assay [5] (intravenous injection, urethane anesthetized rats). Also, in assay [5] (intravenous or intracerebroventricular injection, urethane anesthetized rat), the heart rate result is “increase heart rate”.

The values are drawn from patent publication US5478807A, “Use of relaxin in the treatment of bradycardia” (Genentech, Inc., priority 1992, dated 1995).
